According to patent publication US5656422A, “Compositions and methods for detection of 2,4-dichlorophenoxyacetic acid and related compounds” (Idaho Research Foundation, Inc., priority 1994, dated 1997):

Experiments:
[1] = molecular target: T1, 2,4-D α-ketoglutarate dioxygenase (Cupriavidus pinatubonensis, UniProt P10088); experiment: Enzyme activity and kinetics of recombinant DDO in cell-free extract (DCP production, 4-aminoantipyrine method)
From the text: (§1) Effect of pH on enzyme activity. Since the color reaction by the 4-aminoantipyrine method is almost instantaneous, the conversion rate of 2,4-D into DCP determines the response time for 2,4-D detection. Higher reaction rates result in smaller response times or less enzyme needed for 2,4-D detection. […] However, the preferred pH for the color reaction is in the range of pH 8.0 to 12.0. […] More importantly, 4-aminoantipyrine reacts with potassium ferricyanide at pH 6.5, producing a slight color change that is similar to having 2 mg/l DCP in solutions. Although pH 6.5 can be used for the enzymatic reaction if the pH of the solution is subsequently adjusted for the color reaction, this is less convenient.
(§2) Effect of Fe^2+ on enzyme activity. […] This saturation concentration should be a function of enzyme concentration used. In order to maximize enzyme activity, a higher ferrous ion concentration, such as 100 μM, should be used for 2,4-D detection.
(§3) Kinetics of enzymatic reaction. […] Since oxygen cannot be controlled in the process of 2,4-D detection, oxygen was not considered in the model. Kinetic data were measured at pH 8.0, 100 mM Fe^2+ and room temperature (20° C.), as shown in the Lineweaver-Burk plots in FIGS. 18A and 18B.
(§4) The values of model parameters were determined from double reciprocal plots.

E. coli DH5α (pYG3) = experiment: Induction of enzyme production by IPTG in E. coli DH5α (pYG3); assay type: cell-based
Method: Growth and maintenance of E. coli DH5α (pYG3). E. coli DH5α (pYG3), a strain specifically constructed for 2,4-D detection (Example 1), was routinely maintained on LB plates with 75 mg/l of ampicillin and stored at 4° C. Yeast extract was used as a carbon and energy source for E. coli DH5α (pYG3) with 50 mg/l of ampicillin for selective pressure. Batch cultures of E. coli DH5α (pYG3) were carried out in 1000 ml flasks with 400 ml media for the optimization of media and operating condition. The media were directly inoculated by a single colony on a LB plate. The flasks were shaken on a rotary shaker at 200 rpm and incubated at 30° C. or 37° C.
DCP concentration was measured by the 4-aminoantipyrine method (E. Emerson, J. Org. Chem. 1943, 8, 417-419). In place of 2,4-D, phenoxyacetic acid was used for P. aeruginosa PAO1 (pRO103).
Preparation of cell-free extracts. E. coli cultures (10 or 15 ml) were harvested by centrifugation (8,000×g) for 10 minutes, washed using 5 ml of 100 mM sodium phosphate buffer (pH 8.0), then resuspended in 3 ml of phosphate buffer. Cell-free extracts were obtained by passing the cells once through a pre-chilled French press at 1500 psi and clarifying the debris by centrifugation (16,000×g) for 20 minutes at 4° C.
IPTG concentration. IPTG was used as the inducer of the lacZ promoter which regulated the expression of tfdA in pYG3 (Example 1). […]

O=C(O)CCC(=O)C(=O)O = experiment: cells, lysate or membranes named; conditions: other: 20° C., pH 8.0, 50 μM Fe^2, cell-free extract
O=C(O)COc1ccc(Cl)cc1Cl = experiment: cells, lysate or membranes named; conditions: other: 20° C., pH 8.0, 50 μM Fe^2, cell-free extract
From the text: as §1, §2, §3, §4

[2] = molecular target: T1, 2,4-D α-ketoglutarate dioxygenase; design: made in house; host or cells: E. coli DH5α (pYG3), cell-free extract; conditions: cited from earlier work

T1 sequence (P10088 whole entry): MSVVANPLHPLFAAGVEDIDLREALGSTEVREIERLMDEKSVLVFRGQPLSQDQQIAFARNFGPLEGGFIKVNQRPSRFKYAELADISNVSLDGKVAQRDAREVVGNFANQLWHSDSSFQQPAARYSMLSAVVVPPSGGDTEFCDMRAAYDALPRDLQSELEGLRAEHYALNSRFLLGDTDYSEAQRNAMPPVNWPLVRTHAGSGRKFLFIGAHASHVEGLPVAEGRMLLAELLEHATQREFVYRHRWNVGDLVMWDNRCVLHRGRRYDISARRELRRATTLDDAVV

[Fe+2] [ferrous ions]
saturation concentration of ferrous ion for enzyme activity ([1]; cell-free extract): 50 µM

CC(C)S[C@@H]1O[C@H](CO)[C@H](O)[C@H](O)[C@H]1O [IPTG, isopropyl β-D-thiogalactopyranoside]
saturation IPTG concentration for enzyme production (E. coli DH5α (pYG3); E. coli DH5α (pYG3)): approximately 150 mg/l | activation at 150 µg/mL (E. coli DH5α (pYG3); Escherichia coli, at saturation IPTG concentration, approximately 150 mg/l, read-out: enzyme productivity higher than without IPTG): ~40%

2,4-D α-ketoglutarate dioxygenase (Cupriavidus pinatubonensis JMP134)
Km (O=C(O)CCC(=O)C(=O)O): 55 µM | Km (O=C(O)COc1ccc(Cl)cc1Cl): 107 µM

O=C(O)COc1ccccc1 [phenoxyacetic acid]
cleavage by DDO [2]: cleaves the side chain

O=C(O)COc1cc(Cl)c(Cl)cc1Cl [2,4,5-T, (2,4,5,-trichlorophenoxy)acetic acid]
cleavage by DDO [2]: does not cleave

Cc1cc(Cl)ccc1OCC(=O)O [MCPA, 4-chloro-2-methyl-phenoxyacetic acid]
cleavage by DDO [2]: cleaves the side chain

2,4-D α-ketoglutarate dioxygenase [DDO]
Vmax ([1]; 20° C., pH 8.0, 50 μM Fe^2, cell-free extract of E. coli DH5α (pYG3)): 2.0 µmol/min/mg | optimum pH for the enzymatic reaction ([1]; conversion of 2,4-D into DCP): 6.5

Cc1ccccc1OCC(=O)O [2-methylphenoxyacetic acid]
cleavage by DDO [2]: cleaves
